Assay results taken from PMC11289455 (Scientific Reports, 2024).
Read-outs that look alike come from different tables or passages of the source.

Assays:
Assay type in all cases: binding
[1] = target: T1, α2A (alpha-2A adrenergic receptor) (Homo sapiens, UniProt P08913); experiment: SafetyScreen44: α2A
T1 construct: purchased Eurofins Cerep SafetyScreen44
T1 sequence (P08913 1-465): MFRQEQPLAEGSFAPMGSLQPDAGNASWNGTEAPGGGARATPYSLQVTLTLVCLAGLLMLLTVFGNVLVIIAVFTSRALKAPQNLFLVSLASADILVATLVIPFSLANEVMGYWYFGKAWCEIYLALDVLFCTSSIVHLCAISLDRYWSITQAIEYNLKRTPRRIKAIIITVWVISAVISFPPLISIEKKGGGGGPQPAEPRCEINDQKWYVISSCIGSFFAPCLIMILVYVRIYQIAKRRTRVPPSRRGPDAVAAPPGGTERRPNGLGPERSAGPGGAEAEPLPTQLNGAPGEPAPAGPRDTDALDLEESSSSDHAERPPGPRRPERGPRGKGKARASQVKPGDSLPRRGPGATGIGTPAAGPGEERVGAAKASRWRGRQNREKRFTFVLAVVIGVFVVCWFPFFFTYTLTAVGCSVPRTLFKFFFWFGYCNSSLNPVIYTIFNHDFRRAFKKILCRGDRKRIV

[2] = target: T2, CB1 (cannabinoid receptor type 1) (Homo sapiens, UniProt P21554); experiment: SafetyScreen44: CB1
T2 construct: purchased Eurofins Cerep SafetyScreen44
T2 sequence (P21554 whole entry): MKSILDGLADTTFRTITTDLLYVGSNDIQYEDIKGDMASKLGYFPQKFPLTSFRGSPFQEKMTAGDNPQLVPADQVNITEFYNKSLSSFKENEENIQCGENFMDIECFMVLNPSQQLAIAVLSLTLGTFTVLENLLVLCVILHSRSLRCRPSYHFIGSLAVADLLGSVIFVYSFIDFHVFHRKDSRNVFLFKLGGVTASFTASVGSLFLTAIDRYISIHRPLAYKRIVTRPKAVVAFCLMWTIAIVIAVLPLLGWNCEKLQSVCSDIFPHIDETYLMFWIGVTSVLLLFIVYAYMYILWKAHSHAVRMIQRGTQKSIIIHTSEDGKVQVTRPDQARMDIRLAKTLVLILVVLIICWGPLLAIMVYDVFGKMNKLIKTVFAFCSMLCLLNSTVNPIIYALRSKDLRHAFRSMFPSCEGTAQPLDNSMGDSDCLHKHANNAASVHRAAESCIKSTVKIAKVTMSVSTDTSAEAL

[3] = target: T3, MAO-A (monoamine oxidase A) (Rattus norvegicus, UniProt P21396); experiment: SafetyScreen44: MAO-A
T3 construct: purchased Eurofins Cerep SafetyScreen44
T3 sequence (P21396 1-526): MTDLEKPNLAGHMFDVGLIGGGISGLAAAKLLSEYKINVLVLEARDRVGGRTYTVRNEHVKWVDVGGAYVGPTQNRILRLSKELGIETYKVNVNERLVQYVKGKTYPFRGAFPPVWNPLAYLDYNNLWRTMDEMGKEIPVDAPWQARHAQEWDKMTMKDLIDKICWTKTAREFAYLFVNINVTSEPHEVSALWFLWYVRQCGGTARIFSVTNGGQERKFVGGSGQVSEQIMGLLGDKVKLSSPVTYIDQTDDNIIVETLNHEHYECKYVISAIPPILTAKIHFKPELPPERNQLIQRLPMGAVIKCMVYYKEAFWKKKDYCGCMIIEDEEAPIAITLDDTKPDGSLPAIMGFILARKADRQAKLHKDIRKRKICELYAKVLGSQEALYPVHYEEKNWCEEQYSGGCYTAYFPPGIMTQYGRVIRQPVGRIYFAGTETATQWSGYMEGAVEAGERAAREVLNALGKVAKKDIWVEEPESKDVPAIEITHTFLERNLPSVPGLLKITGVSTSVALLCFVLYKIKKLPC

[4] = target: T4, N neuronal α4β2 (neuronal alpha-4-beta-2 nicotinic acetylcholine receptor) (Homo sapiens, UniProt P17787+P43681); experiment: SafetyScreen44: N neuronal α4β2
T4 construct: purchased Eurofins Cerep SafetyScreen44
T4 sequence (P43681 29-627 limits assumed): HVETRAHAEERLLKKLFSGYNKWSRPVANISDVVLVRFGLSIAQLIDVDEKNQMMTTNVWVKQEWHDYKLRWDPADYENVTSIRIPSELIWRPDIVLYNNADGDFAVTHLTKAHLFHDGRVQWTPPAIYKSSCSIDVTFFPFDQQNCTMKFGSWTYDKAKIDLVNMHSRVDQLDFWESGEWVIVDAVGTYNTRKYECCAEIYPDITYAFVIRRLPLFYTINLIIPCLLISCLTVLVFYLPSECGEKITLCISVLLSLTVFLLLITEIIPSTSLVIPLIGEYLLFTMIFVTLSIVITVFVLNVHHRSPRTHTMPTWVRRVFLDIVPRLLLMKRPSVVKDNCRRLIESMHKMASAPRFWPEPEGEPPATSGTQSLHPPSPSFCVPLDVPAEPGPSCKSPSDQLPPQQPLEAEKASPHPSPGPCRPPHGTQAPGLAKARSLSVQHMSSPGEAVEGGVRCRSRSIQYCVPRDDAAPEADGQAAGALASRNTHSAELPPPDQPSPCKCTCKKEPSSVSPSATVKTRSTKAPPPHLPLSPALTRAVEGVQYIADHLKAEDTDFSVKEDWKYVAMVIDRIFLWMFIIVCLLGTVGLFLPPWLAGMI
T4 sequence (P17787 26-502): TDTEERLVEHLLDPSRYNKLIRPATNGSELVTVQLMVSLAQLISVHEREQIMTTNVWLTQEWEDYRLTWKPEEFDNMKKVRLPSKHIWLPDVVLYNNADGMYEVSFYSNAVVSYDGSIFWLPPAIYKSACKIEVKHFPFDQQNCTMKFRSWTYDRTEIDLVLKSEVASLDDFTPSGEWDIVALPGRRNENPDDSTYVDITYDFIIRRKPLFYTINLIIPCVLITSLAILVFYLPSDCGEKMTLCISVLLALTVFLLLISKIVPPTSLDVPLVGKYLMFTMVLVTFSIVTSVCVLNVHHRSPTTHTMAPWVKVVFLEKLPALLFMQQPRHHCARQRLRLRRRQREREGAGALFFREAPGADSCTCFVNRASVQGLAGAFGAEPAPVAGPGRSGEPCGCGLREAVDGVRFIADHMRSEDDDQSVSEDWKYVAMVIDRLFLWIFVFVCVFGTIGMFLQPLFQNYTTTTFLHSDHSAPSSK

[5] = target: T5, 5-HT3 (serotonin 3 receptor) (Homo sapiens, UniProt P46098); experiment: SafetyScreen44: 5-HT3
T5 construct: purchased Eurofins Cerep SafetyScreen44
T5 sequence (P46098 24-478): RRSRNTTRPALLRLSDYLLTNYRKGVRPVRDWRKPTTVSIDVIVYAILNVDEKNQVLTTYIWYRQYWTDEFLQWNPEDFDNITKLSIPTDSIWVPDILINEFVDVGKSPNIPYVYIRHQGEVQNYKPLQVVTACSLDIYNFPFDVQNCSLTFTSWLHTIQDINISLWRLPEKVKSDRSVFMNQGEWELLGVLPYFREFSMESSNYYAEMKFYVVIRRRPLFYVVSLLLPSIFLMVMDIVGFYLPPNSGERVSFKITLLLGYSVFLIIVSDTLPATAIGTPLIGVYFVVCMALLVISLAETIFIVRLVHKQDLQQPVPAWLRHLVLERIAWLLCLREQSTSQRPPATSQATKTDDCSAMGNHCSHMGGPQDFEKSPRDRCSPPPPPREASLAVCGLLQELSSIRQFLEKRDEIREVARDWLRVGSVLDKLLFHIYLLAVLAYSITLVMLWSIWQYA

AR (androgen receptor) = target: T6, AR (androgen receptor) (Homo sapiens, UniProt P10275, T878A); experiment: SafetyScreen44: AR
T6 construct: purchased Eurofins Cerep SafetyScreen44
T6 sequence (P10275 1-920 T878A): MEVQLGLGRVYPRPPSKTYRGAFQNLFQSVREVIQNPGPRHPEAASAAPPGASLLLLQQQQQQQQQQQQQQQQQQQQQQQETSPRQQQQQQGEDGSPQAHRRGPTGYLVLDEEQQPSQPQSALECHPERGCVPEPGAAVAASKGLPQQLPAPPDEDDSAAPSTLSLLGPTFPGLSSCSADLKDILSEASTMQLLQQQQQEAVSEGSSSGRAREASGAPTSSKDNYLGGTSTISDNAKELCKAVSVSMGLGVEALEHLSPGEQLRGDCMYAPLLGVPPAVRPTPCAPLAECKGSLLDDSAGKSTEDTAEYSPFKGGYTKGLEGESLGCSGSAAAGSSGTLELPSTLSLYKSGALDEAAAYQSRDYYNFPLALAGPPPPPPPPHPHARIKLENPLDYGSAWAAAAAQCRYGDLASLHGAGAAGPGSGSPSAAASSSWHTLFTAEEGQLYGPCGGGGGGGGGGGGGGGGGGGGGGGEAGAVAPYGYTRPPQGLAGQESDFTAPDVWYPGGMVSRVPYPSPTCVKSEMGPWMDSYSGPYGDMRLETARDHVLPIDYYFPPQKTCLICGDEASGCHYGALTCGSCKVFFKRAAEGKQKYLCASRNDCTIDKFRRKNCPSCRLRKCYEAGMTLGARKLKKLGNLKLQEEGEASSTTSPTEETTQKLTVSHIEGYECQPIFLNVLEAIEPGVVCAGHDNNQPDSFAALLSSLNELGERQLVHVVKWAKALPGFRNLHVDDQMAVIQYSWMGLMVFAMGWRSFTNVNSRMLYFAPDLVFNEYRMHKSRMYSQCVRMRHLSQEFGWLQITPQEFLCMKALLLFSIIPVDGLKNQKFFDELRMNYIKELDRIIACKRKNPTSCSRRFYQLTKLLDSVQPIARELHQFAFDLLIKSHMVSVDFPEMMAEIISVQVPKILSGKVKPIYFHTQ

Work on `CC(=O)NCCCC[C@@H]1NC(=O)[C@H](Cc2c[nH]c3c(C)cccc23)NC(=O)[C@H]([C@@H](C)O)NC(=O)[C@H](CC(N)=O)NC(=O)[C@@H](NC(C)=O)C(C)(C)SSC(C)(C)[C@@H](C(=O)N[C@@H](Cc2ccc(OCCN)cc2)C(=O)N[C@@H](Cc2ccc3ccccc3c2)C(=O)NC2(C(=O)N[C@@H](CCC(=O)O)C(=O)N[C@@H](CC(N)=O)C(=O)N[C@@H](Cc3cccnc3)C(=O)N(C)CC(N)=O)CCOCC2)NC1=O` [JNJ-77242113, S^3,1,S^3,6-cyclo[N-acetyl-3-sulfanyl-L-valyl-L-asparaginyl-L-threonyl-7-methyl-L-tryptophyl-N^6-acetyl-L-lysyl-3-sulfanyl-L-valyl-O-(2-aminoethyl)-L-tyrosyl-3-(naphthalen-2-yl)-L-alanyl-4-aminooxan-4-carbonyl-L-α-glutamyl-L-asparaginyl-3-(pyridin-3-yl)-L-alanyl-N^2-methylglycinamide]] yielded an inhibition at 10 µM ([1]; 1st run, read-out: Percent inhibition of control ligand binding, α2A, 1st run) of 0.4%, an inhibition at 10 µM ([1]; 2nd run, read-out: Percent inhibition of control ligand binding, α2A, 2nd run) of -2.6% and an inhibition at 10 µM ([1]; mean of 2 runs, read-out: Percent inhibition of control ligand binding, α2A, Mean) of -1.1%. The inhibition at 10 µM ([2]; 1st run, read-out: Percent inhibition of control ligand binding, CB1, 1st run) was 2.5%, the inhibition at 10 µM ([2]; 2nd run, read-out: Percent inhibition of control ligand binding, CB1, 2nd run) was -6.9% and the inhibition at 10 µM ([2]; mean of 2 runs, read-out: Percent inhibition of control ligand binding, CB1, Mean) was -2.2%. It also gave an inhibition at 10 µM ([3]; 1st run, read-out: Percent inhibition of control ligand binding, MAO-A, 1st run) of 12%, an inhibition at 10 µM ([3]; 2nd run, read-out: Percent inhibition of control ligand binding, MAO-A, 2nd run) of 10.3% and an inhibition at 10 µM ([3]; mean of 2 runs, read-out: Percent inhibition of control ligand binding, MAO-A, Mean) of 11.2%. It also gave an inhibition at 10 µM ([4]; 1st run, read-out: Percent inhibition of control ligand binding, N neuronal α4β2, 1st run) of -10.4%, an inhibition at 10 µM ([4]; 2nd run, read-out: Percent inhibition of control ligand binding, N neuronal α4β2, 2nd run) of -7.5% and an inhibition at 10 µM ([4]; mean of 2 runs, read-out: Percent inhibition of control ligand binding, N neuronal α4β2, Mean) of -8.9%. For the same compound, the inhibition at 10 µM ([5]; 1st run, read-out: Percent inhibition of control ligand binding, 5-HT3, 1st run) was 0.7%, the inhibition at 10 µM ([5]; 2nd run, read-out: Percent inhibition of control ligand binding, 5-HT3, 2nd run) was 3.4% and the inhibition at 10 µM ([5]; mean of 2 runs, read-out: Percent inhibition of control ligand binding, 5-HT3, Mean) was 2.1%. The inhibition at 10 µM (AR (androgen receptor); 1st run, read-out: Percent inhibition of control ligand binding, AR, 1st run) was -5.6%, the inhibition at 10 µM (AR (androgen receptor); 2nd run, read-out: Percent inhibition of control ligand binding, AR, 2nd run) was -3.7% and the inhibition at 10 µM (AR (androgen receptor); mean of 2 runs, read-out: Percent inhibition of control ligand binding, AR, Mean) was -4.7%.
